Measured values as given in patent US20260199902A1, “SYSTEM AND APPARATUS FOR THE HAND-HELD AMPLIFICATION AND DETECTION OF NUCLEIC ACIDS” (Darwin Biosciences, Inc., priority 2022, published 2026).
Counter-ions that a name gives are not always drawn. One block for each compound: values may come before it.

Tests used:
saliva RNases = test: RNase activity assay: cell line RNA incubated with treated saliva, read on Agilent TapeStation; assay type: biochemical, human; set-up: key: Pass (green) indicating sufficient RNase inactivation; Partial Pass (yellow) indicating partial RNase inactivation; Fail (red) indicating incomplete RNase inactivation
Experimental: FIG. 27. Example of saliva RNase activity assays assayed on TapeStation High Sensitivity RNA ScreenTapes (5067; Agilent). Results from three independent assays are shown. Lanes 1-3 (left to right) are experimental controls including 500 μg RNA in RNase free water, untreated saliva without added cell line RNA, and untreated saliva incubated with cell line RNA. Lanes labeled “Incomplete RNase Inactivation” contain no ribosomal RNA bands, indicating RNase activity is present. Lanes labeled “Sufficient RNase Inactivation” contain sharp ribosomal bands (similar to RNA in water), indicating RNases have been inactivated. gDNA=genomic DNA.
(§1) To screen for chemical and protein-based reagents that inhibit saliva RNases, we developed an RNase activity assay in which purified cell line RNA was incubated for 30 min at 37° C. with saliva samples after treatment with potential reagents for RNase inhibition (FIG. 2.5.3). After incubation, RNA was purified and analyzed on an Agilent TapeStation. Sharpness of the eukaryotic ribosomal RNA bands (28S and 18S) were compared to determine RNase activity in the presence of various inhibitors. In addition, the Agilent TapeStation calculates an RNA Integrity Score (RIN) as a measure of RNA quality (RIN of 10-fully intact RNA, RIN of 1=fully degraded RNA), however contaminating nucleic acid (e.g., 16S and 23S rRNA from bacteria) interferes with this calculation.
as §1, with “10=fully” for “10-fully”, “calculation. In total, 54 unique reagents, concentrations, and buffer formulations were tested for their ability to inactivate RNases.” for “calculation.”

RT-RPA reactions = test: RT-RPA interference (compatibility) testing of lysis and RNase inhibitor reagents, agarose gel; assay type: biochemical; set-up: key: Pass (green) indicates that reagents did not interfere with RT-RPA; Partial Pass: Partial pass (yellow) indicates that reagents had partial interference in RT-RPA; Fail (red) indicates reagents completely interfered with RT-RPA reactions
Experimental: FIG. 28. Reagent interference testing in RT-RPA. Lysis and RNase inhibitor reagents tested in RT-RPA using cDNA and RNA templates. RT-RPA reactions were prepared with varying concentrations of reagents, as labeled above (final concentrations in a 20 μl RT-RPA reaction are reported). Amplification products were run on a 2% agarose gel and band intensities were compared to control (No added reagent) reactions. Reactions labeled in red contain no reverse transcriptase. The expected size of the CXCL8 amplicon is indicated to the left of the gel. GuHCI=Guanidine hydrochloride, Triton=Triton X-100.
Reagents under consideration for the device were tested for compatibility with RT-RPA at the concentrations expected to be required for lysis. To test for interference, lysis or RNase inhibitor reagents were spiked into RT-RPA reactions with purified cell line RNA or cDNA as a template. Reactions were analyzed by agarose gel for the presence or absence of amplified products. […]

RT-RPA reaction = test: RT-RPA efficiency in the presence of Buffer 20 and Buffer 21; assay type: biochemical; conditions: 100 mM
Experimental: FIG. 7. Evaluation of optimized sample treatment and lysis buffer components. (A) RT-RPA efficiency in the presence of Buffer 20 and Buffer 21, using cell line RNA as (+) template and (−) no template control. (B) Optimized early/pre-infection diagnostic sample treatment and lysis tested on 5 individuals. −RT=no reverse transcriptase was included in the RT-RPA reaction, +RT=Superscript IV was added to the RPA reaction at a final concentration of 1 U/μl.
We therefore modified the lysis buffer formulation to Buffer 21 (5 mM TCEP-HCl, 7.5% Tween-20, 0.00167% Digitonin), which removed the guanidine hydrochloride and RNase Inhibitor. […] The present inventors lyophilized Buffer 21 into the selected lysis pad material and processed saliva from five donors through the device (FIG. 7B). This processing included expression of the sample from a collection pad, which pushed the sample through the lysis pad embedded with Buffer 21 and 4 U/μl of mRI, followed by the 10 μm filter, 100 mg of Chelex-100, and 1 μm filter. The resulting sample was used to reconstitute RPA reagents (Twist rehydration buffer and Twist enzymes), and reverse transcriptase and modified RPA primers were added to the reaction.

[1] = tested on: primer dimers in multiplexed RT-RPA; test: Betaine as additive in multiplexed RT-RPA; assay type: biochemical; conditions: preliminary experiments
Excerpt: A challenge of multiplexed RT-RPA is an increased tendency to form primer dimers that impact the readout on a lateral flow strip. We have explored the use of betaine as an additive to reduce the occurrence of primer dimers. Betaine can prevent the formation of primer dimers in isothermal amplification by effectively lowering the melting temperature of an oligo sequence. […] Thus, betaine may be an effective additive to reduce primer dimers in RT-RPA reactions in certain embodiments.

[2] = 100 mM final in RT-RPA reaction

Compound: O[C@@H](CS)[C@@H](O)CS [DTT]
Inactivation of saliva RNases, Result (saliva RNases; 10 mM): Fail

Compatibility in RT-RPA, Result (RT-RPA reactions; 2 mM final in RT-RPA reaction): Pass
Compatibility in RT-RPA, Result (RT-RPA reactions; 6 mM final in RT-RPA reaction): Partial Pass
Compatibility in RT-RPA, Result (RT-RPA reactions; 18 mM final in RT-RPA reaction): Fail
Compound: O=C(O)CN(CCN(CC(=O)O)CC(=O)O)CC(=O)O [EDTA]

Compound: N#CS.N=C(N)N [GTC]
Compatibility in RT-RPA, Result (RT-RPA reactions; [2]): Fail

Compound: Cl.N=C(N)N [GuHCl, Guanidine hydrochloride]
Compatibility in RT-RPA, Result (RT-RPA reactions; [2]): Pass
Compatibility in RT-RPA, Result (RT-RPA reactions; 200 mM final in RT-RPA reaction): Fail
Effect on RT-RPA reaction efficiency (RT-RPA reaction): reduces the overall efficiency of the RT-RPA reaction

Compound: Cl [HCl, Hydrochloric acid]
Compatibility in RT-RPA, Result (RT-RPA reactions; 5 mM final in RT-RPA reaction): Pass

Compatibility in RT-RPA, Result (RT-RPA reactions; 0.005% final in RT-RPA reaction): Fail
Compound: CCCCCCCCCCCCOS(=O)(=O)[O-].[Na+] [SDS, sodium dodecyl sulfate]

Compound: Cl.O=C(O)CCP(CCC(=O)O)CCC(=O)O [TCEP-HCl]
Compatibility in RT-RPA, Result (RT-RPA reactions; 5 mM final in RT-RPA reaction): Partial Pass
Compatibility in RT-RPA, Result (RT-RPA reactions; 10 mM final in RT-RPA reaction): Fail
Inactivation of saliva RNases, Result (saliva RNases; 5 mM and 12.5 mM): Fail
Inactivation of saliva RNases, Result (saliva RNases; 50 mM): Pass

Compound: O=C(O)CCP(CCC(=O)O)CCC(=O)O [TCEP-neutral]
Inactivation of saliva RNases, Result (saliva RNases; 5 mM and 50 mM): Fail

Compound: OCCS [beta-mercaptoethanol]
Inactivation of saliva RNases, Result (saliva RNases; 143 mM): Fail

Compound: C[N+](C)(C)CC(=O)O [betaine]
Primer noise [1]: can reduce primer noise in multiplexed RT-RPA reactions

Compound: C[C@@H]1CC[C@@]2(OC1)O[C@H]1[C@@H](O)[C@H]3[C@@H]4CC[C@H]5C[C@@H](O[C@@H]6O[C@H](CO)[C@H](O[C@@H]7O[C@H](CO)[C@@H](O)[C@H](O[C@@H]8OC[C@@H](O)[C@H](O)[C@H]8O)[C@H]7O[C@@H]7O[C@H](CO)[C@H](O)[C@H](O[C@@H]8O[C@H](CO)[C@@H](O)[C@H](O)[C@H]8O)[C@H]7O)[C@H](O)[C@H]6O)[C@H](O)C[C@]5(C)[C@H]4CC[C@]3(C)[C@H]1[C@@H]2C [digitonin]
Compatibility in RT-RPA, Result (RT-RPA reactions; 1% final in RT-RPA reaction): Pass

Compatibility in RT-RPA, Result (RT-RPA reactions; 0.01% final in RT-RPA reaction): Partial Pass
Compatibility in RT-RPA, Result (RT-RPA reactions; 0.1% final in RT-RPA reaction): Fail
Compound: CCCCCCCCCCCC(=O)N(C)CC(=O)[O-].[Na+] [sarkosyl]

Compatibility in RT-RPA, Result (RT-RPA reactions; 0.01%-0.25% final in RT-RPA reaction): Partial Pass
Compound: IGEPAL

Compatibility in RT-RPA, Result (RT-RPA reactions; 1% final in RT-RPA reaction): Pass
Compatibility in RT-RPA, Result (RT-RPA reactions; 5%-10% final in RT-RPA reaction): Partial Pass
Compound: Triton X-100
